Experiments:
[1] = biological target: human transferrin receptor (hTfR) (Homo sapiens, UniProt P02786); test: SPR measurement of peptide binding to hTfR; details: naked peptide (1st to 15th amino acids, without linker part) corresponding to the listed linker-attached peptide; read-out: SPR of naked peptide (KD for binding to hTfR)
Description: Note that ND indicates No Data (here, it means that no data was obtained).

PD-L1 = biological target: T1, PD-L1 (Homo sapiens, UniProt Q9NZQ7); test: ELISA bindability of atezolizumab-peptide conjugate to PD-L1; format: binding; details: sample at 100 nM, average absorbance of two measurements
T1 construct: purchased R&D SYSTEMS 9049-B7
Protocol: The bindability of atezolizumab-peptide conjugates to the antigen PD-L1 was measured by ELISA.
100 μg of PD-L1 (R&D SYSTEMS, Cat. No. 9049-B7) was dissolved in PBS (Nacalai Tesque, Inc., Cat. No. 27575-31) to a final concentration of 1 g/L. To the dissolved PD-L1, 5 equivalents of 10 mM NHS-PEG4-Biotin (Thermo Scientific, Cat. No. A39259) was added and incubated at 4° C. overnight to biotinylate PD-L1. To a column packed with 1 mL of Bio-Gel P-6 (Bio-Rad, Cat. No. 1504130), swollen with a solution of polyoxyethylene sorbitan monolaurate (Nacalai Tesque, Inc., Cat. No. 28353-85) added to PBS to a final concentration of 0.1% (PBST), 100 μL of the above solution was added per one column to remove unreacted NHS-PEG4-Biotin.
Random biotinylated PD-L1 was added to IMMOBILIZER STREPTAVIDIN F96 clear (NUNC, Cat. No. 436014) at 1 μmol per one well and incubated at 4° C. overnight to perform solidification. The plate was washed with 900 μL of PBST in a plate washer (TECAN, HydroSpeed). 300 μL of 1% Block Ace (KAC Co., Ltd., Cat. No. UK-B80) was added per one well and incubated at room temperature for 90 minutes to perform blocking treatment. The plate was washed with 900 μL of PBST in the plate washer. […] The absorbance at 450 nm was measured in a plate reader (Enspir (trademark), Perkin Elmer).

human TfR = biological target: T2, human TfR (Homo sapiens, UniProt P02786); test: ELISA bindability of various antibody-peptide conjugates to TfR; format: binding; details: sample at 100 nM, average absorbance of two measurements
T2 construct: made in house
Protocol: (§1) Random biotinylated TfR was added to IMMOBILIZER STREPTAVIDIN F96 clear (NUNC, Cat. No. 436014) at 1 μmol per one well and incubated at 4° C. overnight to perform solidification. The plate was washed with 900 μL of PBST in a plate washer (TECAN, HydroSpeed). 300 μL of 1% Block Ace (KAC Co., Ltd., Cat. No. UK-B80) was added per one well and incubated at room temperature for 90 minutes to perform blocking treatment. The plate was washed with 900 μL of PBST in the plate washer. 50 μL of various antibody-peptide conjugate and antibody whose peptide is not modified diluted to a final concentration of 100 nM by 50 mM HEPES pH 7.8-0.1% Block Ace were added and incubated at room temperature for 60 min. The plate was washed with 900 μL of PBST in the plate washer. 50 μL of Goat Anti-Human IgG H&L (HRP) (Abcam, Cat. No. ab97165) diluted 50,000 times with PBST-0.1% Block Ace solution was added and incubated at room temperature for 45 min. The plate was washed with 900 μL of PBST in the plate washer. 50 μL of TMB Solution (Sara care, Cat. No. 5150-0077) at room temperature was added and color development was performed at room temperature for 10 min in dark place, then 50 μL of TMB Stop Solution (Sara care, Cat. No. 5150-0021) was added to stop the color development. The absorbance at 450 nm was measured in a plate reader (Enspir (trademark), Perkin Elmer).

[2] = ELISA no-target control wells (non-specific binding of antibodies and antibody-peptide conjugates); details: sample at 100 nM, no target immobilized
Protocol: as §1, with “PD-1” for “TfR”, “50 μL of various antibody-peptide conjugate and antibody whose peptide is not modified diluted to a final concentration of 100 nM by 50 mM HEPES pH 7.8-0.1% Block Ace were added and incubated at room temperature for 60 min.” left out
as §1

[3] = Test substance concentration in plasma, hTfR-KI mouse; format: in vivo, hTfR-KI mice; details: Example 7-2, tail vein 5 mg/kg, 1, 3, 6 and 24 hours, FIG. 2-3
Protocol: Blood was drawn from the tail vein after 1 and 3 hours from administration (2 mice/time point). After 6 and 24 hours from administration, mice were anesthetized with isoflurane, blood was drawn from the right ventricle, and then perfused with saline from the left ventricle for 4 to 5 min for blood removing treatment. Blood was collected using an EDTA-2K-treated needle and syringe, and the collected blood was kept on ice until it was separated into plasma.
To Strept Avidin plate (Meso Scale Diagnostics, LLC), 150 μL/well of Blocker Casein in PBS (Thermo Fisher Scientific, Inc.) was added and shaken (26° C., 500 rpm) for 60 min in a plate shaker (Biosan) to perform blocking treatment. The Blocker Casein in PBS was removed from the Strept Avidin plates, and 200 μL/well of PBST was added to each plate and washed. 25 μL/well of Capture antibody solution was added to each Strept Avidin plate, and the plates were shaken (26° C., 500 rpm) for 60 min in a plate shaker. Capture antibody solution was removed and PBST was added 200 μL/well and washed. This washing operation was performed three times. […] The concentration of each test substance in the samples were calculated by adding 150 μL/well of 2×Read Buffer T to each Strept Avidin plate and measuring with a plate reader (Sector S600, Meso Scale Diagnostics, LLC).

[4] = Test substance concentration in tissue (brain migration), hTfR-KI mouse; format: in vivo, hTfR-KI mice; details: Example 7-2, tail vein 5 mg/kg, 6 and 24 hours, heart, lung, liver, spleen, kidney, quadriceps muscle, FIG. 2-4
Protocol: Blood was drawn from the tail vein after 1 and 3 hours from administration (2 mice/time point). After 6 and 24 hours from administration, mice were anesthetized with isoflurane, blood was drawn from the right ventricle, and then perfused with saline from the left ventricle for 4 to 5 min for blood removing treatment. Blood was collected using an EDTA-2K-treated needle and syringe, and the collected blood was kept on ice until it was separated into plasma. After blood removing treatment, brains were harvested and divided into left and right portions, and the left brain was embedded in a freeze-embedding agent (OCT compound, Sakura Finetek Co., Ltd.) for immunostaining and a frozen block was prepared. The right brain, heart, lung, liver, spleen, kidney, and quadriceps muscle were collected for measurement of test substance concentrations in tissues, weighed, flash-frozen in liquid nitrogen, and stored at −70° C. or less. […]
To Strept Avidin plate (Meso Scale Diagnostics, LLC), 150 μL/well of Blocker Casein in PBS (Thermo Fisher Scientific, Inc.) was added and shaken (26° C., 500 rpm) for 60 min in a plate shaker (Biosan) to perform blocking treatment. […] The concentration of each test substance in the samples were calculated by adding 150 μL/well of 2×Read Buffer T to each Strept Avidin plate and measuring with a plate reader (Sector S600, Meso Scale Diagnostics, LLC).

human transferrin receptor (hTfR), sequence (P02786 whole entry): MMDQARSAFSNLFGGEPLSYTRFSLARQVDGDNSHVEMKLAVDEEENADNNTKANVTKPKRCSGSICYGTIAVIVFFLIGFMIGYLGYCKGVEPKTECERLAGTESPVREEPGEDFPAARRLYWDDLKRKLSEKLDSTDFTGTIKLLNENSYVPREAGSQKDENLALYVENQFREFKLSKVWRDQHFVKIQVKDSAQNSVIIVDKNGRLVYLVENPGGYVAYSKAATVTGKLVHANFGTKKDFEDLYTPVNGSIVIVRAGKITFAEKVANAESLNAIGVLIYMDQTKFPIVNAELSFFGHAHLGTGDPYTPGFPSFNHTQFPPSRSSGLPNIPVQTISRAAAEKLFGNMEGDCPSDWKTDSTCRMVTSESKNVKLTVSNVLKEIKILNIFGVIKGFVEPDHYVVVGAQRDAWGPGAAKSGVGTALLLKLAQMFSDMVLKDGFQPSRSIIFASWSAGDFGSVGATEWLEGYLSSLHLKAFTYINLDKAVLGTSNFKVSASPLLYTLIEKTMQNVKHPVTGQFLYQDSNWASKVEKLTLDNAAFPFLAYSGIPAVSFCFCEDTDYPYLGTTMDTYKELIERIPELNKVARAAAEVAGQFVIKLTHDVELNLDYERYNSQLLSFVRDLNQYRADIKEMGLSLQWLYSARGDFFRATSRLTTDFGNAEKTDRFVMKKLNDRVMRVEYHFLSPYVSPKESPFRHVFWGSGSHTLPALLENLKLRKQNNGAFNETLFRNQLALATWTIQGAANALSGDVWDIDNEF
T1 sequence (Q9NZQ7 19-290): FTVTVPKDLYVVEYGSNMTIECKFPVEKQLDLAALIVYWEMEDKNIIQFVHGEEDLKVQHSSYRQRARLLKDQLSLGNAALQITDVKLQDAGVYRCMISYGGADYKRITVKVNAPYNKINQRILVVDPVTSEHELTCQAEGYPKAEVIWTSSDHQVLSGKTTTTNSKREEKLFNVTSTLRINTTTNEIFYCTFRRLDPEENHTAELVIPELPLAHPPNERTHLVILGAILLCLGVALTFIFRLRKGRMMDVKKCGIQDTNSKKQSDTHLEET
T2 sequence (P02786 whole entry): as the sequence (P02786 whole entry) above

| Kd [1] [nM] | Abs450 nm at 100 nM, No-target [2] | Compound | other results |
| --- | --- | --- | --- |
| < 1 |  | CC[C@H](C)[C@@H]1NC(=O)[C@H](Cc2ccc(O)cc2)NC(=O)[C@H](Cc2ccc(O)cc2)NC(=O)[C@H](CC(N)=O)NC(=O)[C@H](Cc2c[nH]c3ccccc23)NC(=O)[C@H](C(C)C)NC(=O)[C@H](Cc2ccccc2)NC(=O)[C@H](C(C)C)NC(=O)[C@H](C)NC(=O)CSC[C@@H](C(=O)NCCOCCOCCOCCOCCC(=O)NN)NC(=O)[C@H](Cc2ccc(O)cc2)N(C)C(=O)[C@H](Cc2ccc(O)cc2)NC(=O)[C@H](CCCNC(=N)N)NC(=O)[C@H](CCCNC(=N)N)NC(=O)[C@H]([C@@H](C)CC)NC1=O [hTIR 000894_PEG4_(Hydrazide)] |  |
| < 1 |  | CC[C@H](C)[C@@H]1NC(=O)[C@H](Cc2ccc(O)cc2)NC(=O)[C@H](Cc2ccc(O)cc2)NC(=O)[C@H](CC(N)=O)NC(=O)[C@H](Cc2c[nH]c3ccccc23)NC(=O)[C@H](C(C)C)NC(=O)[C@H](Cc2ccccc2)NC(=O)[C@H](C(C)C)NC(=O)[C@H](C)NC(=O)CSC[C@@H](C(=O)NCC(=O)N[C@@H](CCC(=O)O)C(=O)NCC(=O)N[C@@H](CCC(=O)O)C(=O)NCCOCCOCCOCCOCCOCCOCCOCCOCCOCCOCCOCCOCCC(=O)NN)NC(=O)[C@H](Cc2ccc(O)cc2)N(C)C(=O)[C@H](Cc2ccc(O)cc2)NC(=O)[C@H](CCCNC(=N)N)NC(=O)[C@H](CCCNC(=N)N)NC(=O)[C@H]([C@@H](C)CC)NC1=O [hTfR_894_(GEGE)PEG12_Hydrazide] |  |
| < 1 |  | CC[C@H](C)[C@@H]1NC(=O)[C@H](Cc2ccc(O)cc2)NC(=O)[C@H](Cc2ccc(O)cc2)NC(=O)[C@H](CC(N)=O)NC(=O)[C@H](Cc2c[nH]c3ccccc23)NC(=O)[C@H](C(C)C)NC(=O)[C@H](Cc2ccccc2)NC(=O)[C@H](C(C)C)NC(=O)[C@H](C)NC(=O)CSC[C@@H](C(=O)NCCOCCOCCOCCOCCOCCOCCOCCOCCOCCOCCOCCOCCC(=O)N[C@@H](CCCCNC(=O)C2CCC(CN3C(=O)C=CC3=O)CC2)C(N)=O)NC(=O)[C@H](Cc2ccc(O)cc2)N(C)C(=O)[C@H](Cc2ccc(O)cc2)NC(=O)[C@H](CCCNC(=N)N)NC(=O)[C@H](CCCNC(=N)N)NC(=O)[C@H]([C@@H](C)CC)NC1=O (some centres unmarked) [hTfR_000894_PEG11_K (Maleimide)] |  |
|  | 0.0455 | pertuzumab |  |

Continued, compound first:

| Compound | Kd [1] [nM] | Abs450 nm at 100 nM, No-target [2] | other results |
| --- | --- | --- | --- |
| CC[C@H](C)[C@@H]1NC(=O)[C@H](Cc2ccc(O)cc2)NC(=O)[C@H](Cc2ccc(O)cc2)NC(=O)[C@H](CC(N)=O)NC(=O)[C@H](Cc2c[nH]c3ccccc23)NC(=O)[C@H](C(C)C)NC(=O)[C@H](Cc2ccccc2)NC(=O)[C@H](C(C)C)NC(=O)[C@H](C)NC(=O)CSC[C@@H](C(=O)NCCOCCOCCOCCOCCOCCOCCOCCOCCOCCOCCOCCOCCOCCOCCOCCOCCOCCOCCOCCOCCOCCOCCOCCOCCOCCOCCOCCOCCOCCOCCOCCOCCOCCOCCOCCOCCC(=O)ON2C(=O)CCC2=O)NC(=O)[C@H](Cc2ccc(O)cc2)N(C)C(=O)[C@H](Cc2ccc(O)cc2)NC(=O)[C@H](CCCNC(=N)N)NC(=O)[C@H](CCCNC(=N)N)NC(=O)[C@H]([C@@H](C)CC)NC1=O [JCR_hTfR_000894_PEG36_(NHS)] | < 1 |  |  |
| CC[C@H](C)[C@@H]1NC(=O)[C@H](Cc2ccc(O)cc2)NC(=O)[C@H](Cc2ccc(O)cc2)NC(=O)[C@H](CC(N)=O)NC(=O)[C@H](Cc2c[nH]c3ccccc23)NC(=O)[C@H](C(C)C)NC(=O)[C@H](Cc2ccccc2)NC(=O)[C@H](C(C)C)NC(=O)[C@H](C)NC(=O)CSC[C@@H](C(=O)NCCOCCOCCOCCOCCOCCOCCOCCOCCOCCOCCOCCOCCOCCOCCOCCOCCOCCOCCOCCOCCOCCOCCOCCOCCOCCOCCOCCOCCOCCOCCOCCOCCOCCOCCOCCOCCC(=O)NN)NC(=O)[C@H](Cc2ccc(O)cc2)N(C)C(=O)[C@H](Cc2ccc(O)cc2)NC(=O)[C@H](CCCNC(=N)N)NC(=O)[C@H](CCCNC(=N)N)NC(=O)[C@H]([C@@H](C)CC)NC1=O [hTIR_000894_PEG36_(Hydrazine)] | < 1 |  |  |
| CC[C@H](C)[C@@H]1NC(=O)[C@H](Cc2ccc(O)cc2)NC(=O)[C@H](Cc2ccc(O)cc2)NC(=O)[C@H](CC(N)=O)NC(=O)[C@H](Cc2c[nH]c3ccccc23)NC(=O)[C@H](C(C)C)NC(=O)[C@H](Cc2ccccc2)NC(=O)[C@H](C(C)C)NC(=O)[C@H](C)NC(=O)CSC[C@@H](C(=O)NCCOCCOCCOCCOCCOCCOCCOCCOCCOCCOCCOCCOCCC(=O)NN)NC(=O)[C@H](Cc2ccc(O)cc2)N(C)C(=O)[C@H](Cc2ccc(O)cc2)NC(=O)[C@H](CCCNC(=N)N)NC(=O)[C@H](CCCNC(=N)N)NC(=O)[C@](C)([C@@H](C)CC)NC1=O [hTfR_000894_PEG11_(Hydrazine)] | < 1 |  |  |
| atezolizumab |  | 0.043 | Abs450 nm at 100 nM, Target PD-L1 (PD-L1): 2.237; Abs450 nm at 100 nM, Target hTfR (human TfR): 0.0465 |
| ipilimumab |  | 0.044 |  |
| nivolumab [Nivolumab (control)] |  |  | concentration in plasma, time course [3]: detected in plasma at all time points evaluated and showed biphasic changes in plasma concentrations; detection in tissues [4]: detected in all tissues |
| pembrolizumab |  | 0.0415 |  |

— patent US20240366775A1, “HUMAN TRANSFERRIN RECEPTOR BINDING ANTIBODY-PEPTIDE CONJUGATE” (PEPTIDREAM INC., priority 2021, published 2024)
